Test results taken from PubChem BioAssay AID328 (DTP/NCI, 2004).
Several values for one entry are separate records, joined by “and”; a condition that tells them apart may be missing. Equal values may be shown once. Inconclusive results and toxic doses are left out.

Test system: BDF1 mice, P388 leukemia ip, median survival T/C
Assay: NCI In Vivo Anticancer Drug Screen. Data for tumor model P388 Leukemia (intraperitoneal) in B6D2F1 (BDF1) mice
Details: endpoint: median survival time, higher = longer survival
Procedure, shortened: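 T/C = treated-group survival ÷ vehicle-control survival; tumour transplanted into mice before dosing.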

[1] = dose: 50.0 mg/kg/injection, schedule: Q01DX009 (ip), vehicle: saline with Tween-80
[2] = dose: 100.0 mg/kg/injection, schedule: Q01DX009 (ip), vehicle: saline with Tween-80
[3] = dose: 200.0 mg/kg/injection, schedule: Q01DX009 (ip), vehicle: saline with Tween-80
[4] = dose: 100.0 mg/kg/injection, schedule: Q04DX003 (ip), vehicle: saline with Tween-80
[5] = dose: 200.0 mg/kg/injection, schedule: Q04DX003 (ip), vehicle: saline with Tween-80
[6] = dose: 400.0 mg/kg/injection, schedule: Q04DX003 (ip), vehicle: saline with Tween-80
[7] = dose: 25.0 mg/kg/injection, schedule: Q04DX003 (ip), vehicle: Klucel (hydroxypropylcellulose) (HPC)
[8] = dose: 50.0 mg/kg/injection, schedule: Q04DX003 (ip), vehicle: Klucel (hydroxypropylcellulose) (HPC)
[9] = dose: 100.0 mg/kg/injection, schedule: Q04DX003 (ip), vehicle: Klucel (hydroxypropylcellulose) (HPC)
[10] = dose: 200.0 mg/kg/injection, schedule: Q04DX003 (ip), vehicle: Klucel (hydroxypropylcellulose) (HPC)
[11] = dose: 400.0 mg/kg/injection, schedule: Q04DX003 (ip), vehicle: Klucel (hydroxypropylcellulose) (HPC)
[12] = dose: 25.0 mg/kg/injection, schedule: Q01DX009 (ip), vehicle: saline with Tween-80
[13] = dose: 50.0 mg/kg/injection, schedule: Q01DX009 (ip), vehicle: Klucel (hydroxypropylcellulose) (HPC)
[14] = dose: 100.0 mg/kg/injection, schedule: Q01DX009 (ip), vehicle: Klucel (hydroxypropylcellulose) (HPC)
[15] = dose: 12.5 mg/kg/injection, schedule: Q01DX009 (ip), vehicle: Klucel (hydroxypropylcellulose) (HPC)
[16] = dose: 25.0 mg/kg/injection, schedule: Q01DX009 (ip), vehicle: Klucel (hydroxypropylcellulose) (HPC)

N#Cc1ccc(/C=N/NC(N)=S)s1
T/C [1]: 97 % of control | T/C [2]: 102 % of control | T/C [3]: 97 % of control

Cn1c(O)c(N=NC(N)=S)c2ccccc21
T/C (dose: 10.0 mg/kg/injection, schedule: Q01DX009 (ip), vehicle: saline with Tween-80): 102 % of control | T/C (dose: 20.0 mg/kg/injection, schedule: Q01DX009 (ip), vehicle: saline with Tween-80): 98 % of control | T/C (dose: 40.0 mg/kg/injection, schedule: Q01DX009 (ip), vehicle: saline with Tween-80): 115 % of control | T/C [1]: 90 % of control | T/C (dose: 80.0 mg/kg/injection, schedule: Q01DX009 (ip), vehicle: saline with Tween-80): 120 % of control | T/C [2]: 90 % of control | T/C (dose: 160.0 mg/kg/injection, schedule: Q01DX009 (ip), vehicle: saline with Tween-80): 113 % of control | T/C [3]: 90 % of control

Nc1nncs1
T/C (dose: 7.8 mg/kg/injection, schedule: Q01DX010 (ip), vehicle: saline): 118 % of control | T/C (dose: 12.5 mg/kg/injection, schedule: Q01DX010 (ip), vehicle: saline): 100 % of control | T/C (dose: 15.6 mg/kg/injection, schedule: Q01DX010 (ip), vehicle: saline): 154 % of control | T/C (dose: 25.0 mg/kg/injection, schedule: Q01DX010 (ip), vehicle: saline): 163 % of control | T/C (dose: 25.0 mg/kg/injection, schedule: Q04DX003 (ip), vehicle: saline): 118 % of control | T/C (dose: 50.0 mg/kg/injection, schedule: Q01DX010 (ip), vehicle: saline): 190 % of control | T/C (dose: 100.0 mg/kg/injection, schedule: Q01DX010 (ip), vehicle: saline): 100 % of control | T/C (dose: 100.0 mg/kg/injection, schedule: Q04DX003 (ip), vehicle: saline): 172 % of control | T/C (dose: 108.0 mg/kg/injection, schedule: Q04DX003 (ip), vehicle: saline): 154 % of control | T/C (dose: 173.0 mg/kg/injection, schedule: Q04DX003 (ip), vehicle: other): 179 % of control | T/C (dose: 180.0 mg/kg/injection, schedule: Q04DX003 (ip), vehicle: saline): 208 % of control | T/C (dose: 200.0 mg/kg/injection, schedule: Q04DX003 (ip), vehicle: saline): 181 % of control | T/C (dose: 288.0 mg/kg/injection, schedule: Q04DX003 (ip), vehicle: other): 212 % of control

NC1CCC1N (stereo not drawn)
T/C (dose: 50.0 mg/kg/injection, schedule: Q01DX001 (ip), vehicle: saline): 110 % of control | T/C (dose: 100.0 mg/kg/injection, schedule: Q01DX001 (ip), vehicle: saline): 105 % of control | T/C (dose: 200.0 mg/kg/injection, schedule: Q01DX001 (ip), vehicle: saline): 105 % of control

O=C(Nc1ccccc1)c1ccc(C(F)(F)F)cc1O
T/C (dose: 16.5 mg/kg/injection, schedule: Q01DX009 (ip), vehicle: saline): 99 % of control | T/C (dose: 25.0 mg/kg/injection, schedule: Q01DX009 (ip), vehicle: saline): 93 % of control | T/C (dose: 35.0 mg/kg/injection, schedule: Q01DX009 (ip), vehicle: saline): 112 % of control | T/C (dose: 100.0 mg/kg/injection, schedule: Q01DX009 (ip), vehicle: saline): 108 % of control | T/C (dose: 200.0 mg/kg/injection, schedule: Q01DX009 (ip), vehicle: saline): 95 % of control

CC(SC(C)c1ccccc1)c1ccccc1 (stereo not drawn)
T/C [4]: 108 % of control | T/C [5]: 108 % of control | T/C [6]: 116 % of control

CCCCCCCC/C=C\CCCCCCCC(=O)OC
T/C [4]: 96 % of control | T/C [3]: 120 % of control | T/C [5]: 103 % of control | T/C [6]: 88 % of control

Cc1c(C(=O)O)nc(CC(O)C(Cl)(Cl)Cl)[nH]c1=O (stereo not drawn)
T/C [7]: 98 % of control | T/C [8]: 97 % of control | T/C [9]: 103 % of control | T/C [10]: 100 % of control | T/C [11]: 96 % of control

Oc1ccc(/C=N/NC(=S)Nc2ccccc2)nc1
T/C [11]: 150 % of control

C1CSCCSCCCSCCSC1
T/C [12]: 98 % of control | T/C [1]: 102 % of control | T/C [2]: 118 % of control

Cn1c(-c2ccccc2)c(C(=O)O)c(C(=O)O)c1-c1ccccc1
T/C [13]: 95 % of control | T/C [14]: 90 % of control | T/C (dose: 200.0 mg/kg/injection, schedule: Q01DX009 (ip), vehicle: Klucel (hydroxypropylcellulose) (HPC)): 96 % of control

CC(=O)O[C@H]1C(=O)[C@@]2(C)[C@H]([C@H](OC(=O)c3ccccc3)[C@]3(O)C[C@H](OC(=O)[C@H](O)[C@@H](NC(=O)c4ccccc4)c4ccccc4)C(C)=C1C3(C)C)[C@]1(OC(C)=O)CO[C@@H]1C[C@@H]2O
T/C (dose: 5.0 mg/kg/injection, schedule: Q01DX010 (ip), vehicle: steriod suspending solution): 186 % of control | T/C (dose: 10.0 mg/kg/injection, schedule: Q01DX010 (ip), vehicle: steriod suspending solution): 172 % of control | T/C (dose: 12.5 mg/kg/injection, schedule: Q04DX003 (iv), vehicle: Klucel (hydroxypropylcellulose) (HPC)): 100 % of control | T/C (dose: 20.0 mg/kg/injection, schedule: Q01DX010 (ip), vehicle: steriod suspending solution): 190 % of control | T/C (dose: 21.6 mg/kg/injection, schedule: Q04DX003 (ip), vehicle: Klucel (hydroxypropylcellulose) (HPC)): 171 % of control | T/C (dose: 25.0 mg/kg/injection, schedule: Q01DX010 (ip), vehicle: steriod suspending solution): 113 % of control | T/C [7]: 162 % of control | T/C (dose: 25.0 mg/kg/injection, schedule: Q04DX003 (iv), vehicle: Klucel (hydroxypropylcellulose) (HPC)): 98 % of control | T/C (dose: 25.9 mg/kg/injection, schedule: Q04DX003 (ip), vehicle: Klucel (hydroxypropylcellulose) (HPC)): 179 % of control | T/C (dose: 43.2 mg/kg/injection, schedule: Q04DX003 (ip), vehicle: Klucel (hydroxypropylcellulose) (HPC)): 170 % of control | T/C [8]: 165 % of control | T/C (dose: 50.0 mg/kg/injection, schedule: Q04DX003 (iv), vehicle: Klucel (hydroxypropylcellulose) (HPC)): 103 % of control | T/C (dose: 60.0 mg/kg/injection, schedule: Q04DX003 (ip), vehicle: Klucel (hydroxypropylcellulose) (HPC)): 102 % of control | T/C (dose: 72.0 mg/kg/injection, schedule: Q04DX003 (ip), vehicle: Klucel (hydroxypropylcellulose) (HPC)): 166 % of control | T/C [9]: 173 % of control | T/C (dose: 120.0 mg/kg/injection, schedule: Q04DX003 (ip), vehicle: Klucel (hydroxypropylcellulose) (HPC)): 100 % of control

CC(C)(C#N)Nc1ccccc1
T/C (dose: 3.13 mg/kg/injection, schedule: Q01DX009 (ip), vehicle: saline with Tween-80): 90 % of control and 100 % of control | T/C (dose: 6.25 mg/kg/injection, schedule: Q01DX009 (ip), vehicle: saline with Tween-80): 90 % of control and 95 % of control | T/C (dose: 12.5 mg/kg/injection, schedule: Q01DX009 (ip), vehicle: saline with Tween-80): 95 % of control

Cc1cc(NC(=O)c2ccc(C(=O)Nc3ccc(C4=NCCN4)c(C)c3)cc2)ccc1C1=NCCN1
T/C [2]: 122 % of control | T/C [3]: 186 % of control

CCOC(=O)C[Si](C)(C)C
T/C [7]: 99 % of control | T/C [8]: 99 % of control | T/C [9]: 97 % of control | T/C [10]: 101 % of control | T/C [11]: 109 % of control

CC(=O)NCCSC(=O)C(=O)SCCNC(C)=O
T/C (dose: 75.0 mg/kg/injection, schedule: Q01DX009 (ip), vehicle: Klucel (hydroxypropylcellulose) (HPC)): 100 % of control | T/C (dose: 150.0 mg/kg/injection, schedule: Q01DX009 (ip), vehicle: Klucel (hydroxypropylcellulose) (HPC)): 95 % of control

CCOc1nc(N)c(C(N)=O)cc1C#N
T/C [12]: 105 % of control | T/C [1]: 110 % of control | T/C (dose: 66.0 mg/kg/injection, schedule: Q01DX009 (ip), vehicle: saline with Tween-80): 92 % of control and 110 % of control | T/C [2]: 150 % of control | T/C (dose: 150.0 mg/kg/injection, schedule: Q01DX009 (ip), vehicle: saline with Tween-80): 88 % of control and 95 % of control

CN(C)c1ccc2c(N(C)C)cc(N(C)C)nc2c1
T/C [15]: 111 % of control | T/C [16]: 89 % of control | T/C [13]: 120 % of control

CCCOn1nnc2cc(Cl)ccc21
T/C [2]: 100 % of control | T/C [3]: 92 % of control

COc1cc2c(cc1OC)C1CNCC1C(c1cc(OC)c(OC)c(OC)c1)C2 (stereo not drawn)
T/C [15]: 105 % of control | T/C [16]: 100 % of control | T/C [13]: 100 % of control | T/C [14]: 90 % of control
